Measured values from US10125116B2, “Compounds and methods for treating mammalian gastrointestinal microbial infections” (Brandeis University, priority 2009, dated 2018).
Where two headings read alike, the source gives them in different places.

Experiments:
[1] = molecular target: T1, recombinant C. parvum IMPDH (Cryptosporidium parvum, UniProt Q8T6T2); test: C. parvum IMPDH inhibition (NADH production); type: biochemical
T1 construct: made in house; host or cells: bacteria (guaB strains of E. coli)
T1 sequence (Q8T6T2 1-400): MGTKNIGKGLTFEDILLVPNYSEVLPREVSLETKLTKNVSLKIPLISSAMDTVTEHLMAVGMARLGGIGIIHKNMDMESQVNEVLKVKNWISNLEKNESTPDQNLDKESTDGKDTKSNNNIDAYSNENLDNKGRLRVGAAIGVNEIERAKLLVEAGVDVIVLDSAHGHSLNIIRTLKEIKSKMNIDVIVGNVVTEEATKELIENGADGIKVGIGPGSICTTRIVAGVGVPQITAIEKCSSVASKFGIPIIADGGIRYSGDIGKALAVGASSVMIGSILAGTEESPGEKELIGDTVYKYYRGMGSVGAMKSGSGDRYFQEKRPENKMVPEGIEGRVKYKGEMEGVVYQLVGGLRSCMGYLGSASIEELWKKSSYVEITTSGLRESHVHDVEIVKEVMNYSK
Description: Recombinant C. parvum IMPDH was expressed in bacteria and purified as described previously [N. N. Umejiego et al., J Biol Chem 279, 40320-40327 (2004)].
Inhibitors at varying concentrations (25 pM-5 μM) were incubated with 10 nM C. parvum in assay buffer for 10 min at room temperature. The reaction was initiated by the addition of NAD and IMP for final concentrations of 300 μM and 150 μM, respectively. Selectivity was measured against human type II and T. foetus IMPDH at 25° C. in assay buffer. The former was assayed in the presence of 300 μM NAD 40 μM IMP and 160 nM human type II IMPDH, and the latter in the presence of 300 μM NAD 20 μM IMP and 28 nM T. foetus IMPDH. The production of NADH was monitored spectrophotometrically at 340 nm (=6.22 mM^−1 cm^−1) using a Hitachi U-2000 spectrophotometer.
IC50 values were calculated for each inhibitor according to the following equation: υi=υo/(1+[I]/IC50), using the SigmaPlot program (SPSS, Inc.).
The CpIMPDH inhibitory activity of the compounds was assessed by monitoring the production of NADH by fluorescence (FIG. 55). […]
Evaluation of Cp-IMPDH inhibitory activity for the various prepared compounds was conducted utilizing an assay measuring the conversion of IMP to XMP by monitoring the production of NADH by fluorescence emission in the presence of varying inhibitor concentrations. […]

[2] = test system: T. gondii-CpIMPDH; test: T. gondii-CpIMPDH fluorescence growth assay; type: cell-based, Toxoplasma gondii
[3] = test system: C. parvum; conditions: read-out: reported EC50 C. parvum growth (previous studies); cited from earlier work
[4] = test system: C. parvum; test: high content imaging C. parvum growth assay; type: cell-based, Cryptosporidium parvum
Description: FIG. 58 depicts an overview and validation of the high content imaging C. parvum growth assay. A, schematic representation of differential labelling of parasite and host. B, detail of an exemplary micrograph obtained through the screening routine. Numbers indicate object identifies after segmentation analysis. […] For panel D, the ratio of the number of FITC-VVL labelled C. parvum parasites to DAPI labelled HCT-8 host cell nuclei was used to standardize each well and percent C. parvum growth (solid line) was normalized to parasites receiving DMSO alone. […] Paromomycin in addition to reducing parasite number also reduces the average size of the parasite (dashed line). The mean parasite area was measured per well for each treatment in triplicate. The percent area was then calculated by normalizing to the mean area of parasites receiving DMSO alone.
A direct and efficient assay of Cryptosporidium proliferation was also needed. Fluorescent Vicia villosa lectin (VVL) has been used previously to score C. parvum growth by fluorescence microscopy. VVL binds with high specificity to the C. parvum parasite, labelling sporozoites, intracellular stages, the inner oocyst wall, but not the outer oocyst wall. To accommodate the increasing number of compounds entering the SAR pipeline, we adapted the FITC-VVL immunofluorescence assay to a 96-well plate format and developed an automated imaging and analysis pipeline. […] Plates are fixed, permeabilized and stained with FITC-VVL and DAPI to numerate parasites and host cells, respectively. Using a spinning disc microscope, we imaged a […] of each well, providing a robust sample typically consisting of ˜6000 host cells and ˜2000 parasite stages. The instrument is programmed to automatically move from well to well, focus and acquire […] deep image stacks for the entire plate. A series of automated image compression, manipulation, and object-finding algorithms was optimized for the recognition of host cells and parasites using the DAPI and FITC channels. […]

[5] = test system: HCT-8 cells; test: fluorescent HCT-8 host cell growth assay; type: cell-based, human
Description: The differentiation of selective antiparasitic effects from those that are a secondary consequence of a host cell effect is a critical issue in drug discovery for intracellular parasites. Cytotoxicity assays commonly reflect plasma membrane integrity, and are a crude measure of host cell effects—it is conceivable that more subtle perturbations of host cell metabolism can have an adverse effect on parasite proliferation. Therefore we sought to develop a simple and inexpensive assay of host cell growth. The human ileocecal adenocarcinoma epithelial cell line, HCT-8, which is commonly used to maintain C. parvum infection in tissue culture, was engineered to constitutively express a green fluorescent protein (GFP). Growth of this cell line was monitored daily using a fluorescent plate reader. […] These experiments validate the use of the fluorescent HCT-8 cell growth assay.
HCT-8 cells were transfected with the pmaxGFP plasmid (Amaxa) using Lipofectamine (Invitrogen) following the manufactures instruction. Fluorescent lines were then selected and cloned using FACS. Confluent monolayers of pmaxGFP expressing cells were harvested from T75 flasks and passed through a 40 μm cell strainer. Cells were then seeded at 4000 cells per well in a volume of 200 μL into black, optical quality, thin bottom, 96-well plates (DB Falcon). All test compounds were diluted in DMSO to prepare a 200× working stock for each dilution. Appropriate wells were spiked with 1 μl such that the final concentration of DMSO was 0.5%. The fluorescence was read daily with a SpectraMax M22/M2e (Molecular Devices) plate reader (Ex 485, Em 530) for 6-7 days. The percent inhibition was calculated on a day within the exponential phase of growth.

| SMILES | CpIMPDH inhibition, result in words [1] | selective block of T. gondii-CpIMPDH growth, in words [2] | EC50 [3] | mean parasite area, in words [4] | EC50 ([4]; Cryptosporidium parvum, in HCT-8 host cells) | reduction in parasite number ([4]; very high concentrations) | host cell (HCT-8) growth effect, in words [5] |
| --- | --- | --- | --- | --- | --- | --- | --- |
| O=C(Nc1ccc(Cl)cc1)C(Oc1cccc2ccccc12)c1ccccc1 (stereo not shown) [A66] | do not inhibit CpIMPDH in vitro | none of these compounds selectively blocked the growth |  |  |  |  |  |
| NC[C@@H]1O[C@H](O[C@H]2[C@@H](O)[C@H](O[C@@H]3[C@@H](O)[C@H](N)C[C@H](N)[C@H]3O[C@H]3O[C@H](CO)[C@@H](O)[C@H](O)[C@H]3N)O[C@@H]2CO)[C@H](N)[C@@H](O)[C@@H]1O [paromomycin] |  |  | 65 to 130 µM | significantly reduce the mean parasite area in a dose responsive manner | 97 µM | ~70% | negligible effects on the growth of these cells |
